Measured values taken from patent US5731322A, “Octahydro-1H-pyrrolo[3,2-g]and [2,3-g]isoquinoline derivatives” (SmithKline Beecham S.p.A., priority 1993, dated 1998).

Tests used:
mu opioid receptor = target: T1, mu opioid receptor (Mus musculus, UniProt P42866); experiment: Opioid radioligand binding assay, mu ([3H]-DAMGO), mouse brain membranes; conditions: ratio of Ki, mu ([3H]-DAMGO) vs delta
T1 construct: Mouse brain membranes were prepared as described by Kosterlitz; from tissue; host or cells: mouse brain membranes
Method: (§1) Mouse brain membranes were prepared as described by Kosterlitz (Br. J. Pharmacol., 1981, 73, 939.). […] The binding of the mu ligand [^3 H]-DAMGO (Eur. J. Pharmacol., 1989, 166, 213) and of the kappa ligand [^3 H]-U69593 (Excerpta Medica, 1990, 211) were carried out at 0.5 nM. The non-specific binding was determined in presence of naloxone (10 μM) for all tritiated ligands. […] The IC50 obtained were used to calculate the inhibitory constants (Ki) accordingly to the Cheng and Prusoff relation (Biochem. Pharmacol., 1973, 22, 3099).

kappa opioid receptor = target: T2, kappa opioid receptor (Mus musculus, UniProt P33534); experiment: Opioid radioligand binding assay, kappa ([3H]-U69593), mouse brain membranes; conditions: ratio of Ki, kappa ([3H]-U69593) vs delta
T2 construct: Mouse brain membranes were prepared as described by Kosterlitz; from tissue; host or cells: mouse brain membranes
Method: as §1

delta receptor [1] = target: T3, delta receptor (Mus musculus, UniProt P32300); experiment: Mouse vas deferens (MVD) bioassay, delta agonist/antagonist studies, electrically stimulated tissue; assay type: cell-based, mouse (CD-1); set-up: Vasa deferentia were obtained from CD-1 mice; from tissue; host or cells: vas deferens of CD-1 mice
Method: Vasa deferentia were obtained from CD-1 mice and were suspended in a Mg^2+ -free Krebs buffer at 37° C. For the delta agonist/antagonist studies, the tissues were electrically stimulated with pulse trains having the following parameters: train duration 50 ms, stimulus duration 2 ms, frequency of stimuli 50 Hz, maximal voltage 60-70 V, train frequency 0.1 Hz. Concentration response curves for each compounds were constructed cumulatively. Linear regression analysis and IC50 concentrations were evaluated according to Tallarida and Murray (Manual of Pharmacological Calculations, Springer Verlag N.Y., 1981).

delta receptor [2] = target: T3, delta receptor; experiment: Opioid radioligand binding assay, delta ([3H]-DADLE in presence of unlabelled DAMGO), mouse brain membranes; set-up: Mouse brain membranes were prepared as described by Kosterlitz; from tissue; host or cells: mouse brain membranes; conditions: [3H]-DADLE 1.3 nM, 40 nM DAMGO
Method: as §1

T3 sequence (P32300 whole entry): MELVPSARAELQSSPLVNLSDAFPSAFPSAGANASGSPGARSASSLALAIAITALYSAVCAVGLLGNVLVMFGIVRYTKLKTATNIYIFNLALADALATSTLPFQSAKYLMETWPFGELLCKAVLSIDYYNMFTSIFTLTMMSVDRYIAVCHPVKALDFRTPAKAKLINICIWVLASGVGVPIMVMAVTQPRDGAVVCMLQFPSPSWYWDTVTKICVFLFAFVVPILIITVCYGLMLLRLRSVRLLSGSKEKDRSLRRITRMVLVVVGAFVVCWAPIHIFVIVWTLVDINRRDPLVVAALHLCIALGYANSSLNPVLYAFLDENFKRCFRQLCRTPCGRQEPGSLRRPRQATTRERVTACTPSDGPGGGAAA
T1 sequence (P42866 whole entry): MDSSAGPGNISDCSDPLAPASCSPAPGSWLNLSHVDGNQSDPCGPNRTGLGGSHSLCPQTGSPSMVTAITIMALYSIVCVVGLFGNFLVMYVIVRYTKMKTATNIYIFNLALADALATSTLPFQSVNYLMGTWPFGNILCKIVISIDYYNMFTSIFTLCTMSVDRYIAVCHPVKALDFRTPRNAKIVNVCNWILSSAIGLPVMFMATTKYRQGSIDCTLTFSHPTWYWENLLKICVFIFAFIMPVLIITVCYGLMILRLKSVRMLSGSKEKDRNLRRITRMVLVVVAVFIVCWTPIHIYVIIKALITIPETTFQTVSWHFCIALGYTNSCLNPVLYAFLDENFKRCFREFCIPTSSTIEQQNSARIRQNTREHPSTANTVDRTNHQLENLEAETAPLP
T2 sequence (P33534 whole entry): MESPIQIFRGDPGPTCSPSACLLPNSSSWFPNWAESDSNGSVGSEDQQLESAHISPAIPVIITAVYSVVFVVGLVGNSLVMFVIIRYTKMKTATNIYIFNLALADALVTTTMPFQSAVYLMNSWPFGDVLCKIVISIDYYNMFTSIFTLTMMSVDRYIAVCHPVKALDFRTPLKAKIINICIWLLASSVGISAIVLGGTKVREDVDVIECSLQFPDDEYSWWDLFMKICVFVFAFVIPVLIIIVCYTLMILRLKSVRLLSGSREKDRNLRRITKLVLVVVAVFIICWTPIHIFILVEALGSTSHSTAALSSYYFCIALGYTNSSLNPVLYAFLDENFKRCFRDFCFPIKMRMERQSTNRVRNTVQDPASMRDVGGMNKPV

SMILES | Ki mu/Ki delta (mu opioid receptor) | Ki kappa/Ki delta (kappa opioid receptor) | Kb (delta receptor [1]) | Ki (delta receptor [2]) | IC50 (delta receptor [1]; mouse vas deferens, delta agonist study, read-out: IC50 in the MVD preparation (delta agonists))
CCN(CC)C(=O)c1[nH]c2c(c1C)C[C@@H]1CN(C)CC[C@@]1(c1cccc(O)c1)C2.Cl (racemic) [Example 10, (±)-trans-2-Diethylaminocarbonyl-3,6-dimethyl-8a-(3-hydroxyphenyl)-4,4a,5,6,7,8,8a,9-octahydro-1H-pyrrolo[2,3-g]isoquinoline hydrochloride] | 45 | 403 | 7 nM | 2.15 nM | –
CCN1CC[C@@]2(c3cccc(O)c3)Cc3[nH]c(C(=O)N(CC)CC)c(C)c3C[C@@H]2C1.Cl (single isomer, unassigned) [Example 34, (-)-trans-2-Diethylaminocarbonyl-6-ethyl-8a-(3-hydroxyphenyl)-3-methyl-4,4a,5,6,7,8,8a,9-octahydro-1H-pyrrolo[2,3-g]isoquinoline hydrochloride] | 110 | 1105 | – | 0.73 nM | 26 nM
